Measured values published in patent US9073903B2, “Imidazole-2,4-dione inhibitors of casein kinase 1” (Jasco Pharmaceuticals, LLC, priority 2010, dated 2015).
Like-named read-outs stand apart in the source and are kept apart here.

How the values were obtained:
[1] = Hepatic microsomal stability, rat; assay type: in vitro ADME, rat (Sprague-Dawley)
Method: (§1) Hepatic microsmal assays were performed with compound 5114 in human and rat (Sprague-Dawley). Protein concentrations of 0.4 (human) and 0.2 mg/mL (rat) with an NADPH regenerating cofactor system (2.6 mM NADP+, 6.6 mM glucose-6-phosphate, 0.8 U/mL glucose-6-phosphate dehydrogenase, and 6.6 mM magnesium chloride) were used. A 100 μM 20% DMSO/80% acetonitrile working stock of each of the compounds was diluted 100 fold resulting in 1 μM compound/1% final organic reaction concentrations. Time points were removed at 0 and 60 minutes. At each time point, 100 μL of the incubation suspension was added to 200 μL of acetonitrile containing internal standard (tolbutamide), followed by centrifugation at 3,220 rcf for 10 minutes. Two hundred (200) μL of the resulting supernatants were removed, dried under nitrogen and reconstituted in 100 μL of 2 mM ammonium acetate, 0.1% formic acid in 50% methanol prior to analysis by LC/MS/MS. Testosterone and dexamethasone were used as reference compounds.

[2] = PAMPA, 5 h, 10 μM, pH 7.4
Method: The target concentration in the assay was 10 μM, prepared by diluting (1000-fold) the 10 mM stock solutions in DMSO into PBS, pH 7.4. The final DMSO concentration was 0.1%. The 10 μM solutions were added, 300 μL, to wells in the donor plate. The receiver plate, which contained 200 μL of PBS, pH 7.4 per well, was placed in the donor plate and the assembly was incubated for 5 hours at ambient temperature. At the end of the incubation period the plates were separated and the compound concentrations in each solution were determined by LC/MS/MS. The assay was performed in triplicate.
C0 is the initial concentration in the donor well (μM)
CD(t) is the concentration in the donor well after incubation (μM)
CA(t) is the concentration in the acceptor well after incubation (μM)
VD is the volume in the donor well (0.3 mL)
VA is the volume in the acceptor well (0.2 mL)
CE is (CD(t)VD+CA(t)VA)/(VD+VA)
A is the filter area (0.3 cm2)
t is the incubation time (18,000 s).

[3] = Hepatic microsomal stability, human; assay type: in vitro ADME
Method: as §1

[4] = system: different kinases; test: Kinase activity screening by Millipore UK Ltd, percent kinase activity at 300 nM of compound (Table 31); assay type: biochemical
Method: Protocols for Kinase Activity Screening: Kinase screening was performed by Millipore UK Ltd. Kinase dilution buffer composition: 20 mM MOPS, 1 mM EDTA, 0.01% Brij-35, 5% Glycerol, 0.1% b-mercaptoethanol, 1 mg/mL BSA.

[5] = system: Caco-2 cells; test: Inhibition of Caco-2 cells (MTS cell proliferation); assay type: cell-based; conditions: for inhibition at 0.4 µM / inhibition at 0.8 µM / inhibition at 1.6 µM / inhibition at 3.2 µM / inhibition at 6.25 µM / inhibition at 12.5 µM / inhibition at 25 µM / inhibition at 50 µM / inhibition at 100 µM / IC50: Homo sapiens; for inhibition at 0.4 µM: 0.400 μM; for inhibition at 0.4 µM / inhibition at 0.8 µM / inhibition at 1.6 µM / inhibition at 3.2 µM / inhibition at 6.25 µM / inhibition at 12.5 µM / inhibition at 25 µM / inhibition at 50 µM / inhibition at 100 µM: 72 hours; for inhibition at 0.8 µM: 0.800 μM; for inhibition at 1.6 µM: 1.600 μM; for inhibition at 3.2 µM: 3.200 μM; for inhibition at 6.25 µM: 6.250 μM; for inhibition at 12.5 µM: 12.500 μM
Method: Inhibition of Caco-2 Cells Cells: Caco-2 cells, ATCC Passage 33, Mycoplasma free. Medium: DMEM Medium (GIBCO Cat #11995073) supplemented with 10% fetal bovine serum (Hyclone Cat #SH30396.03). Seeding: 3,000 cells/well (100 μL) into 96-wells plate, incubated overnight at 37° C. in a humidified, 5% CO2 atmosphere. […] Fifty microliters (50 μL) of diluted compounds were added into each well. The final concentrations of the positive control and test compounds were shown in the graphs. The cells were incubated for 72 hours after addition of the test compounds. MTS: 15 uL of MTS solution (Promega Cat #G5430) was added into each well and incubated with cells for 4 hours at 37° C. in a humidified, 5% CO2 atmosphere. Measurement: Absorbance at 490 nm was measured using MD Spectramax Plus384 spectrophotometer. The regression curves were calculated by the GraphPad Prism 5 using “log(inhibitor) vs response—variable slope”. Calculation: % of inhibition=(ODzero ctrl−OD compound)/ODzero ctrl*100.

[6] = replicate 1, read-out: % of inhibition 1
[7] = replicate 2, read-out: % of inhibition 2

C[C@@H]1C[C@H]2[C@@H]3CCC4=CC(=O)C=C[C@]4(C)[C@@]3(F)[C@@H](O)C[C@]2(C)[C@@]1(O)C(=O)CO [Dexamethasone]
% remaining after incubation, Rat Microsomes ([1]; Sprague-Dawley, rat, microsomes, 1 h, 1 μM): 91% | Mass Retention R [2]: 9% | % remaining after incubation, Human Microsomes ([3]; human, microsomes, 1 h, 1 μM): 85%

CN(c1nccc(/C=C2\NC(=O)NC2=O)n1)[C@H]1CCCNC1 [Example 67, (S,Z)-5-((2-(methyl(piperidin-3-yl)amino)pyrimidin-4-yl)methylene)imidazolidine-2,4-dione]
Percent Kinase Activity of Enzyme CK1 [4]: 104% | Percent Kinase Activity of Enzyme CK1g2 [4]: 111% | Percent Kinase Activity of Enzyme CK2 [4]: 94% | Percent Kinase Activity of Enzyme Pim-1 [4]: 98% | Percent Kinase Activity of Enzyme Pim-2 [4]: 99% | Percent Kinase Activity of Enzyme Pim-3 [4]: 114%

CNC(=O)c1cc(Oc2ccc(NC(=O)Nc3ccc(Cl)c(C(F)(F)F)c3)cc2)ccn1 [Sorafenib]
inhibition at 0.4 µM [5, 6]: 0.049% | inhibition at 0.4 µM [5, 7]: 0.315% | inhibition at 0.8 µM [5, 6]: 9.97% | inhibition at 0.8 µM [5, 7]: 6.24% | inhibition at 1.6 µM [5, 6]: 14.3% | inhibition at 1.6 µM [5, 7]: 11.4% | inhibition at 3.2 µM [5, 6]: 17% | inhibition at 3.2 µM [5, 7]: 9.39% | inhibition at 6.25 µM [5, 6]: 19.9% | inhibition at 6.25 µM [5, 7]: 23.5% | inhibition at 12.5 µM [5, 6]: 76.8% | inhibition at 12.5 µM [5, 7]: 76.3% | inhibition at 25 µM [5, 6]: 100% | inhibition at 25 µM [5, 7]: 98.5% | inhibition at 50 µM [5, 6]: 102% | inhibition at 50 µM [5, 7]: 99% | inhibition at 100 µM [5, 6]: 84.1% | inhibition at 100 µM [5, 7]: 96.7% | IC50 ([5]; Table 18, read-out: Caco-2* 50% inhibition concentration): 8.78 µM | IC50 ([5]; Table 26, 72 hours, read-out: 50% viability conc.): 8.77 µM | IC50 ([5]; Table 26, 72 hours, read-out: IC50): 9.37 µM | Maximal inhibition % ([5]; Table 26, 72 hours): 100%

Nc1ccc2c(c1)CN(c1nccc(/C=C3\NC(=O)NC3=O)n1)CC2 [Example 64, (Z)-5-((2-(7-amino-3,4-dihydroisoquinolin-2(1H)-yl)pyrimidin-4-yl)methylene)imidazolidine-2,4-dione]
Percent Kinase Activity of Enzyme CK1 [4]: 81% | Percent Kinase Activity of Enzyme CK1g2 [4]: 75% | Percent Kinase Activity of Enzyme CK2 [4]: 65% | Percent Kinase Activity of Enzyme Pim-1 [4]: 83% | Percent Kinase Activity of Enzyme Pim-2 [4]: 81% | Percent Kinase Activity of Enzyme Pim-3 [4]: 97%

O=C1NC(=O)/C(=C/c2ccnc(N3CCC(CNCc4cccc(-c5ccsc5)n4)CC3)n2)N1 [Example 69, (Z)-5-((2-(4-((((6-(thiophen-3-yl)pyridin-2-yl)methyl)amino)methyl)piperidin-1-yl)pyrimidin-4-yl)methylene)imidazolidine-2,4-dione]
Percent Kinase Activity of Enzyme CK1 [4]: 92% | Percent Kinase Activity of Enzyme CK1g2 [4]: 76% | Percent Kinase Activity of Enzyme CK2 [4]: 106% | Percent Kinase Activity of Enzyme Pim-1 [4]: 46% | Percent Kinase Activity of Enzyme Pim-2 [4]: 86% | Percent Kinase Activity of Enzyme Pim-3 [4]: 59%

NCC1CCN(c2nccc(/C=C3\NC(=O)NC3=O)n2)CC1 [Example 65, (Z)-5-((2-(4-(aminomethyl)piperidin-1-yl)pyrimidin-4-yl)methylene)imidazolidine-2,4-dione]
Percent Kinase Activity of Enzyme CK1 [4]: 97% | Percent Kinase Activity of Enzyme CK1g2 [4]: 96% | Percent Kinase Activity of Enzyme CK2 [4]: 94% | Percent Kinase Activity of Enzyme Pim-1 [4]: 92% | Percent Kinase Activity of Enzyme Pim-2 [4]: 78% | Percent Kinase Activity of Enzyme Pim-3 [4]: 76%

O=C1NC(=O)/C(=C/c2ccnc(N3CCC(CNCc4ccc5ccccc5n4)CC3)n2)N1 [Example 68, (Z)-5-((2-(4-(((quinolin-2-ylmethyl)amino)methyl)piperidin-1-yl)pyrimidin-4-yl)methylene)imidazolidine-2,4-dione]
Percent Kinase Activity of Enzyme CK1 [4]: 97% | Percent Kinase Activity of Enzyme CK1g2 [4]: 84% | Percent Kinase Activity of Enzyme CK2 [4]: 109% | Percent Kinase Activity of Enzyme Pim-1 [4]: 75% | Percent Kinase Activity of Enzyme Pim-2 [4]: 69% | Percent Kinase Activity of Enzyme Pim-3 [4]: 63%

Nc1cccc2c1CCN(c1nccc(/C=C3\NC(=O)NC3=O)n1)C2 [Example 66, (Z)-5-((2-(5-amino-3,4-dihydroisoquinolin-2(1H)-yl)pyrimidin-4-yl)methylene)imidazolidine-2,4-dione]
Percent Kinase Activity of Enzyme CK1 [4]: 98% | Percent Kinase Activity of Enzyme CK1g2 [4]: 77% | Percent Kinase Activity of Enzyme CK2 [4]: 78% | Percent Kinase Activity of Enzyme Pim-1 [4]: 91% | Percent Kinase Activity of Enzyme Pim-2 [4]: 86% | Percent Kinase Activity of Enzyme Pim-3 [4]: 96%

C[C@]12CC[C@H]3[C@@H](CCC4=CC(=O)CC[C@@]43C)[C@@H]1CC[C@@H]2O [Testosterone]
% remaining after incubation, Rat Microsomes ([1]; 1 μM compound, 0.2 mg/mL protein, NADPH regenerating system, 60 minutes): 0.6% | % remaining after incubation, Human Microsomes ([3]; 1 μM compound, 0.4 mg/mL protein, NADPH regenerating system, 60 minutes): 42%
